One assay addresses T1, JAK3 (Homo sapiens, UniProt P52333).
T1 sequence (P52333 1-1124): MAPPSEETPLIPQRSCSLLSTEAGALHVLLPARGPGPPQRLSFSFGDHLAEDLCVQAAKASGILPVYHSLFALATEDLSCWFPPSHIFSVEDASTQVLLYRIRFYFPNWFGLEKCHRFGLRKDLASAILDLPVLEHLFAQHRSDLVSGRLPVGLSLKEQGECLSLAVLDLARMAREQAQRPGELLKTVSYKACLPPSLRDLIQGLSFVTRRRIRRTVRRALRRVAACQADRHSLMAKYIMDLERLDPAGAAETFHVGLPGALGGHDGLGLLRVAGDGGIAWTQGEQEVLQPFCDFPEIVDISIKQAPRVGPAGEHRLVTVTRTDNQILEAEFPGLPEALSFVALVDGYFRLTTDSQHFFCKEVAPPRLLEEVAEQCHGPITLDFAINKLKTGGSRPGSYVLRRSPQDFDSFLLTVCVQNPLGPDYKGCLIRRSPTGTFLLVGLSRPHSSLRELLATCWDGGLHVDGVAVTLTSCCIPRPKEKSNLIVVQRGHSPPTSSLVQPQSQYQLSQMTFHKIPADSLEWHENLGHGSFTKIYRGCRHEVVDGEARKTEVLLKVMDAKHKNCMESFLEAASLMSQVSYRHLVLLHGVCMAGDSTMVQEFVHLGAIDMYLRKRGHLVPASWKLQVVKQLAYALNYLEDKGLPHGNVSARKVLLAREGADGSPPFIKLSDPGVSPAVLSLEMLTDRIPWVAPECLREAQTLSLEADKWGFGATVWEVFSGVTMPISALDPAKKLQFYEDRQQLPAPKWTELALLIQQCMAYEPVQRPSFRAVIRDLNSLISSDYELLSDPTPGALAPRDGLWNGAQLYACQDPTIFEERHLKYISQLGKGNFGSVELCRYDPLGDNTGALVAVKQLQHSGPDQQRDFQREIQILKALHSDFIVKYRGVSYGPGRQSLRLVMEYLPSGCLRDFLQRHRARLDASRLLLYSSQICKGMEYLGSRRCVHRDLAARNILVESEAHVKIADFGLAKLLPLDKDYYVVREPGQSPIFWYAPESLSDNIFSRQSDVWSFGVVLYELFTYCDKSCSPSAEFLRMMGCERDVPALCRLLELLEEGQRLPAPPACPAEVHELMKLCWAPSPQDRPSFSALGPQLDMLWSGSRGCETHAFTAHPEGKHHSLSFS
The assay can be described thus: JAK3 Inhibition Assay. In kind it is biochemical. To be noted: 1 μM poly(Glu)4Tyr, 5 μM ATP, 1 nM JAK3, 25° C.; read-out: JAK3 enzyme inhibition data (Ki). The method in brief:
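Radiometric JAK3 (1 nM) reaction with 5 μM [33P]ATP and 1 μM poly(Glu)4Tyr in HEPES pH 7.4 buffer, run for 20 min at 25 °C. Reactions were stopped with TCA and filter-captured, and 33P incorporation was counted; values reported as Ki.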

A further assay has as its target JAK-2 enzyme (Homo sapiens, UniProt O60674). The assay can be described thus: JAK2 Inhibition Assay. Conditions: 15 μM poly(Glu)4Tyr, 12 μM ATP, 25° C. In kind it is biochemical. The method in brief: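 JAK2 kinase in HEPES pH 7.4 buffer with MgCl2, DTT, NaCl and BSA; final 15 μM poly(Glu)4Tyr and 12 μM [33P]ATP. Enzyme added to start, 20 min at 25 °C, TCA stop, filter capture and scintillation count of 33P incorporation; Ki values.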

Structures are written as SMILES.

Chain of JAK-2 enzyme (O60674 whole entry, species assumed): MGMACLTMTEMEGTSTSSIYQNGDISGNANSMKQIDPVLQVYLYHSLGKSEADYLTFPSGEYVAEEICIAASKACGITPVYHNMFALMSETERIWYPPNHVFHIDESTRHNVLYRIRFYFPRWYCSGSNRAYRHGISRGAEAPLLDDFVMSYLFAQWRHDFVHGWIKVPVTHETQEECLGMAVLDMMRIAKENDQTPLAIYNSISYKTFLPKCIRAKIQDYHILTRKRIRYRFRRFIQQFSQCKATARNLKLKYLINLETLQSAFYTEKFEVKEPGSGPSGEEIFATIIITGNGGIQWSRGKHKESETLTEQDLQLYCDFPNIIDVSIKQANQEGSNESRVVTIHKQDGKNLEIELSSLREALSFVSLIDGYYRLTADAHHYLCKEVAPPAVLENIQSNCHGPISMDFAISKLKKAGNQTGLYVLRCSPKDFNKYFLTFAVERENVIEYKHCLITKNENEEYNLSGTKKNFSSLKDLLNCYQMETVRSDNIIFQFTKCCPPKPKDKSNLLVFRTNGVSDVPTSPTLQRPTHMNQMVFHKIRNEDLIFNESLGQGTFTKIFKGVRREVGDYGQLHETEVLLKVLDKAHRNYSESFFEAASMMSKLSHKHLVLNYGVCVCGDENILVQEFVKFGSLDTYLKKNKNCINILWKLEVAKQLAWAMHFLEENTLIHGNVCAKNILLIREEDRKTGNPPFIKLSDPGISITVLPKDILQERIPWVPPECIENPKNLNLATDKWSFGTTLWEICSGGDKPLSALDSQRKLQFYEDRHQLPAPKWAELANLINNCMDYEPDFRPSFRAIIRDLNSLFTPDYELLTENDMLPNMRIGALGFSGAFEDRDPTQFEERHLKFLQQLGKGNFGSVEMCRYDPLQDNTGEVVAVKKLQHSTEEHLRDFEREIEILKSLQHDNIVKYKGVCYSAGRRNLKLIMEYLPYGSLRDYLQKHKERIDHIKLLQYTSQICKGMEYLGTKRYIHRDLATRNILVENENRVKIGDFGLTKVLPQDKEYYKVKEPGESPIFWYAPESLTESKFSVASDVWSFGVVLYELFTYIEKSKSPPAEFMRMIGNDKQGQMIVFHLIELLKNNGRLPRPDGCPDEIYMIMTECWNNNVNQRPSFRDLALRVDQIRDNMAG

As a reminder, the Ki is the dissociation constant of the complex between target and ligand, obtained from inhibition or displacement. Regarding `O=C(CC(F)(F)F)Nc1nc(-c2ncnc3[nH]ccc23)cs1` [Compound 64], the Ki at JAK3 and at JAK-2 enzyme was less than 100 nM in each case.

For `CN(CCc1ccccn1)C(=O)c1cc(-c2ncnc3[nH]ccc23)c[nH]1` [Compound 46], the Ki on JAK3 and on JAK-2 enzyme was 100 to 500 nM throughout.

With `N#CCCN(CC1CC1)C(=O)c1coc(-c2ncnc3[nH]ccc23)c1` [Compound 183], the Ki on JAK3 and on JAK-2 enzyme was less than 100 nM in each case.

With `CC(=O)N1CCC(C(=O)Nc2nc(-c3ncnc4[nH]ccc34)cs2)CC1` [Compound 169], the Ki at JAK3 and on JAK-2 enzyme was less than 100 nM each time.

`Cc1c[nH]c2ncnc(-c3cnn(C)c3)c12` [Compound 160]: the Ki at JAK3 and at JAK-2 enzyme was 100 to 500 nM in each case.

On to `CN(CC(F)(F)F)C(=O)c1cc(-c2ncnc3[nH]ccc23)c[nH]1` [Compound 55], for which the Ki on JAK3 was 100 to 500 nM; on JAK-2 enzyme, less than 100 nM.

Regarding `CCCCCN(C)C(=O)c1cc(-c2ncnc3[nH]cc(C)c23)c[nH]1` [Compound 205], the Ki on JAK3 was 100 to 500 nM; on JAK-2 enzyme, less than 100 nM.

Turning to `COC(=O)C1CC=CCC1C(=O)Nc1nc(-c2ncnc3[nH]ccc23)cs1` (stereo not shown) [Compound 149], the values for the Ki on JAK3 and at JAK-2 enzyme were 100 to 500 nM and less than 100 nM, respectively.

As for `O=C(CC1CCCC1)Nc1nc(-c2ncnc3[nH]ccc23)cs1` [Compound 32], the Ki on JAK3 and at JAK-2 enzyme was less than 100 nM in each case.

As for `c1cc(-c2ncnc3[nH]ccc23)[nH]n1` [Compound 4], the Ki lay in the range of 100 to 500 nM on JAK3 and 500 to 5000 nM at JAK-2 enzyme.

Turning to `CCCN(C(=O)CC(C)C)c1nc(-c2ncnc3[nH]ccc23)cs1` [Compound 103, 3-Methyl-N-propyl-N-[4-(7H-pyrrolo[2,3-d]pyrimidin-4-yl)-thiazol-2-yl]-butyramide], the Ki on JAK3 and at JAK-2 enzyme was less than 100 nM each time.

Regarding `O=C(c1cc(-c2ncnc3[nH]ccc23)c[nH]1)N1CCC(O)C1` (stereo not shown) [Compound 56], the Ki on JAK3 is 500 to 5000 nM; at JAK-2 enzyme, 100 to 500 nM.

On to `CCN(Cc1ccccc1)C(=O)c1ccc(-c2ncnc3[nH]ccc23)o1` [Compound 118], for which the Ki on JAK3 and on JAK-2 enzyme was less than 100 nM throughout.

`COC(C)C(=O)Nc1nc(-c2ncnc3[nH]ccc23)cs1` (stereo not shown) [Compound 97]: the Ki at JAK3 was 100 to 500 nM; at JAK-2 enzyme, less than 100 nM.

Turning to `c1nc(-c2cnn(C3CCCC3)c2)c2cc[nH]c2n1` [Compound 36], the Ki on JAK3 and on JAK-2 enzyme was less than 100 nM each time.

Consider `C=CCN(CC=C)C(=O)c1cc(-c2ncnc3[nH]ccc23)c[nH]1` [Compound 17], for which the Ki on JAK3 and at JAK-2 enzyme was less than 100 nM throughout.

As to `CC(C)CNC(=O)c1cc(-c2ncnc3[nH]ccc23)c[nH]1` [Compound 9], the Ki at JAK3 and at JAK-2 enzyme was less than 100 nM each time.

For the compound `C[C@@H](O)CNC(=O)c1cc(-c2ncnc3[nH]ccc23)c[nH]1` [Compound 133], the Ki was 100 to 500 nM at JAK3 and less than 100 nM at JAK-2 enzyme.

For `COCCNC(=O)C(C)n1cc(-c2ncnc3[nH]ccc23)cn1` (stereo not shown) [Compound 81], the Ki on JAK3 and on JAK-2 enzyme was 500 to 5000 nM in each case.

In the case of `O=C(NC1CC1)c1cc(-c2ncnc3[nH]ccc23)c[nH]1` [Compound 12], the Ki on JAK3 was 100 to 500 nM; on JAK-2 enzyme, less than 100 nM.

With `CC(C)CN(CCC(F)(F)F)C(=O)c1ccc(-c2ncnc3[nH]ccc23)o1` [Compound 211], the Ki at JAK3 and on JAK-2 enzyme was less than 100 nM each time.

Take `N#CCCN(Cc1ccccc1)C(=O)c1cc(-c2ncnc3[nH]ccc23)c[nH]1` [Compound 29]: the Ki at JAK3 and at JAK-2 enzyme was less than 100 nM throughout.

For the compound `CC(C)CN(C)C(=O)c1cc(-c2ncnc3[nH]ccc23)c[nH]1` [Compound 27], the Ki is 100 to 500 nM on JAK3 and less than 100 nM at JAK-2 enzyme.

On to `CC(CO)NC(=O)C(C)n1cc(-c2ncnc3[nH]ccc23)cn1` (stereo not shown) [Compound 79], for which the Ki lay within 100 to 500 nM at JAK3 and 500 to 5000 nM on JAK-2 enzyme.

As for `O=C(NCc1ccccc1)c1cc(-c2ncnc3[nH]ccc23)c[nH]1` [Compound 214], the Ki at JAK3 and at JAK-2 enzyme was less than 100 nM throughout.

Consider `CC(C)CC(=O)Nc1nc(-c2ncnc3[nH]ccc23)cs1` [Compound 31], for which the Ki on JAK3 and at JAK-2 enzyme was less than 100 nM throughout.

Source of the values: patent US20090227607A1, “DEAZAPURINES USEFUL AS INHIBITORS OF JANUS KINASES” (priority 2006, published 2009).
